Test results published in the supplement of paper PMC11061612.

Experiments:
Assay in all cases: combination Emax (second highest fraction inhibited in the dose matrix, 72 h); higher = more inhibition; extreme values may be limits of the assay
[1] = system: D-283MED (Other Solid Carcinomas)
Procedure, shortened: (§1)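 Cell lines in DMEM/F12 or RPMI with 10% FBS were plated in 1536-well plates, held 24 hours at 37°C, 5% CO2, then given two-drug dose matrices for 72 hours (DMSO typically 0.2%). Viability was read by CellTiter-Glo 2.0 luminescence and scaled as inhibition from 0 (vehicle wells) to 1 (blank wells). Combination Emax is the second-highest inhibition in the matrix; Bliss excess is observed combination effect minus expected EA + EB − EA·EB, EA and EB being single-agent effects.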

D-392MG (Glioblastoma) = system: D-392MG (Glioblastoma)
Procedure, shortened: as §1

[2] = system: DOK (Oral Cavity Carcinoma)
Procedure, shortened: as §1

[3] = system: FU-OV-1 (Ovarian Carcinoma)
Procedure, shortened: as §1

H4 (Low Grade Glioma) = system: H4 (Low Grade Glioma)
Procedure, shortened: as §1

HCC38 (Breast Carcinoma) = system: HCC38 (Breast Carcinoma)
Procedure, shortened: as §1

[4] = system: HCT-116 (Colorectal Carcinoma)
Procedure, shortened: as §1

[5] = system: MEG-01 (Chronic Myelogenous Leukemia)
Procedure, shortened: as §1

MSTO-211H (Mesothelioma) = system: MSTO-211H (Mesothelioma)
Procedure, shortened: as §1

[6] = system: NOMO-1 (Acute Myeloid Leukemia)
Procedure, shortened: as §1

[7] = system: P31-FUJ (Acute Myeloid Leukemia)
Procedure, shortened: as §1

[8] = system: SK-LMS-1 (Other Solid Carcinomas)
Procedure, shortened: as §1

SK-MEL-1 (Melanoma) = system: SK-MEL-1 (Melanoma)
Procedure, shortened: as §1

[9] = system: SLVL (B-Cell Non-Hodgkin's Lymphoma)
Procedure, shortened: as §1

[10] = system: SNG-M (Endometrial Carcinoma)
Procedure, shortened: as §1

[11] = system: SW48 (Colorectal Carcinoma)
Procedure, shortened: as §1

[12] = system: SW948 (Colorectal Carcinoma)
Procedure, shortened: as §1

Saos-2 (Osteosarcoma) = system: Saos-2 (Osteosarcoma)
Procedure, shortened: as §1

[13] = system: TC-YIK (Other Solid Carcinomas)
Procedure, shortened: as §1

[14] = system: YT (Other Blood Carcinomas)
Procedure, shortened: as §1

Structure (SMILES) | combination Emax [1] | combination Emax (D-392MG (Glioblastoma)) | combination Emax [2] | combination Emax [3] | combination Emax (H4 (Low Grade Glioma)) | combination Emax (HCC38 (Breast Carcinoma)) | combination Emax [4] | combination Emax [5] | combination Emax (MSTO-211H (Mesothelioma)) | combination Emax [6] | combination Emax [7] | combination Emax [8] | combination Emax (SK-MEL-1 (Melanoma)) | combination Emax [9] | combination Emax [10] | combination Emax [11] | combination Emax [12] | combination Emax (Saos-2 (Osteosarcoma)) | combination Emax [13] | combination Emax [14]
C=CCn1c(=O)c2cnc(Nc3ccc(N4CCN(C)CC4)cc3)nc2n1-c1cccc(C(C)(C)O)n1 [AZD1775] + CCc1c2c(nc3ccc(O)cc13)-c1cc3c(c(=O)n1C2)COC(=O)[C@]3(O)CC [SN-38] (first compound max 1 µM, partner max 0.3 µM) | 0.996 | 0.569 | 0.745 | 0.711 | 0.908 | 0.751 | 0.866 | 0.964 | 0.783 | 0.992 | 0.985 | 0.898 | 0.56 | 0.967 | 0.77 | 0.857 | 0.862 | 0.964 | 1 | 0.977
C=CCn1c(=O)c2cnc(Nc3ccc(N4CCN(C)CC4)cc3)nc2n1-c1cccc(C(C)(C)O)n1 [AZD1775] + Nc1ccn([C@@H]2O[C@H](CO)[C@@H](O)C2(F)F)c(=O)n1 [Gemcitabine] (first compound max 1 µM, partner max 0.3 µM) | 0.995 | 0.597 | 0.66 | 0.633 | 0.949 | 0.747 | 0.88 | 0.918 | 0.815 | 0.992 | 1 | 0.804 | 0.422 | 0.954 | 0.751 | 0.887 | 0.879 | 0.843 | 0.865 | 0.997
CN(CCO)CC[C@H](CSc1ccccc1)Nc1ccc(S(=O)(=O)NC(=O)c2ccc(N3CCC([C@@H](O)c4ccccc4-c4ccc(Cl)cc4)CC3)cc2)cc1S(=O)(=O)C(F)(F)F [AZD4320] + CC(=O)O[C@H]1C(=O)[C@@]2(C)[C@H]([C@H](OC(=O)c3ccccc3)[C@]3(O)C[C@H](OC(=O)[C@H](O)[C@@H](NC(=O)c4ccccc4)c4ccccc4)C(C)=C1C3(C)C)[C@]1(OC(C)=O)CO[C@@H]1C[C@@H]2O [Paclitaxel] (first compound max 1 µM, 7x7, partner max 3 µM) | 1 | 1 | 0.99 | 0.716 | 1 | 0.77 | 1 | 0.991 | 0.881 | 0.985 | 1 | 1 | 0.623 | 1 | 1 | 1 | 0.942 | 0.968 | 1 | 1
CN(CCO)CC[C@H](CSc1ccccc1)Nc1ccc(S(=O)(=O)NC(=O)c2ccc(N3CCC([C@@H](O)c4ccccc4-c4ccc(Cl)cc4)CC3)cc2)cc1S(=O)(=O)C(F)(F)F [AZD4320] + CS(=O)(=O)CCNCc1ccc(-c2ccc3ncnc(Nc4ccc(OCc5cccc(F)c5)c(Cl)c4)c3c2)o1 [Lapatinib] (first compound max 1 µM, 7x7, partner max 10 µM) | 0.988 | 0.492 | 0.982 | 0.59 | 0.93 | 0.913 | 0.796 | 0.986 | 0.952 | 0.709 | 0.959 | 0.817 | 0.808 | 0.98 | 0.92 | 0.969 | 0.96 | 0.746 | 1 | 0.451
CN(CCO)CC[C@H](CSc1ccccc1)Nc1ccc(S(=O)(=O)NC(=O)c2ccc(N3CCC([C@@H](O)c4ccccc4-c4ccc(Cl)cc4)CC3)cc2)cc1S(=O)(=O)C(F)(F)F [AZD4320] + Nc1ccn([C@@H]2O[C@H](CO)[C@@H](O)C2(F)F)c(=O)n1 [Gemcitabine] (first compound max 1 µM, 7x7, partner max 0.3 µM) | 1 | 0.96 | 0.859 | 0.245 | 0.988 | 0.813 | 0.899 | 0.93 | 0.96 | 0.987 | 0.959 | 0.984 | 0.649 | 1 | 0.913 | 0.972 | 0.524 | 0.984 | 1 | 0.862
Cc1c2c(nn1C)CSCc1cc(n(C)n1)CSc1cc(c3ccccc3c1)OCCCc1c(C(=O)O)n(C)c3c-2c(Cl)ccc13 [AZD5991] + CC(=O)O[C@H]1C(=O)[C@@]2(C)[C@H]([C@H](OC(=O)c3ccccc3)[C@]3(O)C[C@H](OC(=O)[C@H](O)[C@@H](NC(=O)c4ccccc4)c4ccccc4)C(C)=C1C3(C)C)[C@]1(OC(C)=O)CO[C@@H]1C[C@@H]2O [Paclitaxel] (first compound max 1 µM, 7x7, partner max 3 µM) | 1 | 0.734 | 0.977 | 0.474 | 0.995 | 0.571 | 0.981 | 0.881 | 0.391 | 1 | 1 | 0.919 | 0.21 | 0.954 | 1 | 0.994 | 0.884 | 0.961 | 0.928 | 1
